pKd: −log10 of the molar value.
Molecular target: T1, hNGF (Homo sapiens, UniProt P01138)
T1 construct: gene NGF; homodimer; amine-coupled to the GCI chip
Assay: grating-coupled interferometry (Creoptix WAVE-delta, waveRAPID), hNGF immobilised by amine coupling
Format: binding

T1 sequence (P01138 122-239): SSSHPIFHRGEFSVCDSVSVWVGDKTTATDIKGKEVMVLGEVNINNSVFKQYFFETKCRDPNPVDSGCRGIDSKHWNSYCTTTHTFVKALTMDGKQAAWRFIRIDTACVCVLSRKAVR

C[S+](C)[O-] [DMSO]
pKd: ~2.68
